Activity calls are given as the source filed them. How the calls were made is not given here.
Test system: CCRIS mutagenicity, Ames/micronucleus/aberration tests
Assay: CCRIS mutagenicity studies
Settings: Test System: AMES SALMONELLA TYPHIMURIUM
[1] = Strain/Indicator: TA97, Metabolic Activation: NONE, Method: PREINCUBATION

`CC/C=C1\OC(=O)c2ccccc21` was tested. Which mutagenic call (Strain/Indicator: TA97, Metabolic Activation: HAMSTER, LIVER, S-9, AROCLOR 1254 (10%), Method: PREINCUBATION) did it give?
The mutagenic call was “inactive; negative”.

And the mutagenic call [1]?
Its mutagenic call is “inactive; negative”.

What about the mutagenic call (Strain/Indicator: TA97, Metabolic Activation: RAT, LIVER, S-9, AROCLOR 1254 (10%), Method: PREINCUBATION) of the same compound?
The mutagenic call was “inactive; negative”.

And the mutagenic call (Strain/Indicator: TA98, Metabolic Activation: HAMSTER, LIVER, S-9, AROCLOR 1254 (10%), Method: PREINCUBATION)?
The mutagenic call was “inactive; negative”.

And the mutagenic call (Strain/Indicator: TA98, Metabolic Activation: NONE, Method: PREINCUBATION)?
Its mutagenic call is “inactive; negative”.

What about the mutagenic call (Strain/Indicator: TA98, Metabolic Activation: RAT, LIVER, S-9, AROCLOR 1254 (10%), Method: PREINCUBATION) of the same compound?
Its mutagenic call is “inactive; negative”.

What about the mutagenic call (Strain/Indicator: TA100, Metabolic Activation: HAMSTER, LIVER, S-9, AROCLOR 1254 (10%), Method: PREINCUBATION) of the same compound?
Its mutagenic call is “inactive; negative”.

And the mutagenic call (Strain/Indicator: TA100, Metabolic Activation: NONE, Method: PREINCUBATION)?
The mutagenic call was “inactive; negative”.

What about the mutagenic call (Strain/Indicator: TA100, Metabolic Activation: RAT, LIVER, S-9, AROCLOR 1254 (10%), Method: PREINCUBATION) of the same compound?
The mutagenic call was “active; positive”.

And the mutagenic call (Strain/Indicator: TA1535, Metabolic Activation: HAMSTER, LIVER, S-9, AROCLOR 1254 (10%), Method: PREINCUBATION)?
Its mutagenic call is “inactive; negative”.

What about the mutagenic call (Strain/Indicator: TA1535, Metabolic Activation: NONE, Method: PREINCUBATION) of the same compound?
The mutagenic call was “inactive; negative”.

What about the mutagenic call (Strain/Indicator: TA1535, Metabolic Activation: RAT, LIVER, S-9, AROCLOR 1254 (10%), Method: PREINCUBATION) of the same compound?
Its mutagenic call is “inactive; negative”.

Which results are given for `CC(C)[C@@H]1CC[C@@H](C)C[C@H]1O`?
mutagenic call [1]: inactive; negative; mutagenic call (Strain/Indicator: TA97, Metabolic Activation: RAT, LIVER, S-9, AROCLOR 1254, Method: PREINCUBATION): inactive; negative; mutagenic call (Strain/Indicator: TA97A, Metabolic Activation: NONE, Method: STANDARD PLATE): inactive; negative; mutagenic call (Strain/Indicator: TA97A, Metabolic Activation: RAT LIVER S-9, AROCLOR 1254, Method: STANDARD PLATE): inactive; negative; mutagenic call (Strain/Indicator: TA98, Metabolic Activation: NONE, Method: STANDARD PLATE): inactive; negative; mutagenic call (Strain/Indicator: TA98, Metabolic Activation: RAT LIVER S-9, AROCLOR 1254, Method: STANDARD PLATE): inactive; negative; mutagenic call (Strain/Indicator: TA98, Metabolic Activation: RAT, LIVER, S-9, AROCLOR 1254, Method: STANDARD PLATE): inactive; negative; mutagenic call (Strain/Indicator: TA100, Metabolic Activation: NONE, Method: STANDARD PLATE): inactive; negative; mutagenic call (Strain/Indicator: TA100, Metabolic Activation: RAT LIVER S-9, AROCLOR 1254, Method: STANDARD PLATE): inactive; negative; mutagenic call (Strain/Indicator: TA100, Metabolic Activation: RAT, LIVER, S-9, AROCLOR 1254, Method: STANDARD PLATE): inactive; negative; mutagenic call (Strain/Indicator: TA102, Metabolic Activation: NONE, Method: PREINCUBATION): inactive; negative; mutagenic call (Strain/Indicator: TA102, Metabolic Activation: NONE, Method: STANDARD PLATE): inactive; negative; mutagenic call (Strain/Indicator: TA102, Metabolic Activation: RAT LIVER S-9, AROCLOR 1254, Method: STANDARD PLATE): inactive; negative; mutagenic call (Strain/Indicator: TA102, Metabolic Activation: RAT, LIVER, S-9, AROCLOR 1254, Method: PREINCUBATION): inactive; negative; mutagenic call (Strain/Indicator: TA1535, Metabolic Activation: NONE, Method: STANDARD PLATE): inactive; negative; mutagenic call (Strain/Indicator: TA1535, Metabolic Activation: RAT, LIVER, S-9, AROCLOR 1254, Method: STANDARD PLATE): inactive; negative; mutagenic call (Strain/Indicator: TA1537, Metabolic Activation: NONE, Method: STANDARD PLATE): inactive; negative; mutagenic call (Strain/Indicator: TA1537, Metabolic Activation: RAT, LIVER, S-9, AROCLOR 1254, Method: STANDARD PLATE): inactive; negative
